Results reported in ChEMBL document CHEMBL4052714, “Synthesis and antibacterial activity of novel 4″-O-(1-aralkyl-1,2,3-triazol-4-methyl-carbamoyl) azithromycin analogs” (2017).
Values after ≈ are worked out from the molar mass of the structure shown.

Assays:
Type in all cases: functional
[1] = system: Streptococcus pneumoniae; assay: Antibacterial activity against erythromycin-susceptible Streptococcus pneumoniae ATCC 49619
[2] = system: Streptococcus pneumoniae; assay: Antibacterial activity against erythromycin-resistant Streptococcus pneumoniae B1 expressing ermB gene
[3] = system: Pseudomonas aeruginosa; assay: Antibacterial activity against Pseudomonas aeruginosa ATCC 27853
[4] = system: Streptococcus pneumoniae; assay: Antibacterial activity against erythromycin-resistant Streptococcus pneumoniae A22072 expressing mefA gene
[5] = system: Staphylococcus aureus; assay: Antibacterial activity against methicillin-susceptible Staphylococcus aureus ATCC 29213
[6] = system: Streptococcus pyogenes; assay: Antibacterial activity against erythromycin-resistant Streptococcus pyogenes isolate R2
[7] = system: Escherichia coli; assay: Antibacterial activity against Escherichia coli ATCC 25922
[8] = system: Staphylococcus aureus; assay: Antibacterial activity against erythromycin-susceptible Staphylococcus aureus ATCC 25923
[9] = system: Streptococcus pneumoniae; assay: Antibacterial activity against erythromycin-resistant Streptococcus pneumoniae AB11 expressing ermB/mefA gene
[10] = system: Streptococcus pyogenes; assay: Antibacterial activity against erythromycin-susceptible Streptococcus pyogenes isolate S2

SMILES	MIC [1] [µg/mL]	MIC [2] [µg/mL]	MIC [3] [µg/mL]	MIC [4] [µg/mL]	MIC [5] [µg/mL]	MIC [6] [µg/mL]	MIC [7] [µg/mL]	MIC [8] [µg/mL]	MIC [9] [µg/mL]	MIC [10] [µg/mL]
CC[C@H]1OC(=O)[C@H](C)[C@@H](O[C@H]2C[C@@](C)(OC)[C@@H](O)[C@H](C)O2)[C@H](C)[C@@H](O[C@@H]2O[C@H](C)C[C@H](N(C)C)[C@H]2O)[C@](C)(OC)C[C@@H](C)C(=O)[C@H](C)[C@@H](O)[C@]1(C)O [CLARITHROMYCIN]	0.125 (≈ 0.167 µM)	128 (≈ 171 µM)	32 (≈ 42.8 µM)	4 (≈ 5.35 µM)	0.25 (≈ 0.334 µM)	128 (≈ 171 µM)	64 (≈ 85.6 µM)	0.12 (≈ 0.16 µM)	128 (≈ 171 µM)	0.03 (≈ 0.0401 µM)
CC[C@H]1OC(=O)[C@H](C)[C@@H](O[C@H]2C[C@@](C)(OC)[C@@H](OC(=O)NCc3cn(Cc4ccc([N+](=O)[O-])cc4)nn3)[C@H](C)O2)[C@H](C)[C@@H](O[C@@H]2O[C@H](C)C[C@H](N(C)C)[C@H]2O)[C@](C)(O)C[C@@H](C)CN(C)[C@H](C)[C@H]2OC(=O)O[C@@]21C	1 (≈ 0.967 µM)	4 (≈ 3.87 µM)	64 (≈ 61.9 µM)	4 (≈ 3.87 µM)	32 (≈ 30.9 µM)	128 (≈ 124 µM)	64 (≈ 61.9 µM)	4 (≈ 3.87 µM)	0.5 (≈ 0.483 µM)	0.008 (≈ 0.00774 µM)
CC[C@H]1OC(=O)[C@H](C)[C@@H](O[C@H]2C[C@@](C)(OC)[C@@H](OC(=O)NCc3cn(Cc4cccc(C)c4)nn3)[C@H](C)O2)[C@H](C)[C@@H](O[C@@H]2O[C@H](C)C[C@H](N(C)C)[C@H]2O)[C@](C)(O)C[C@@H](C)CN(C)[C@H](C)[C@@H](O)[C@]1(C)O	0.5 (≈ 0.512 µM)	1 (≈ 1.02 µM)	32 (≈ 32.7 µM)	1 (≈ 1.02 µM)	16 (≈ 16.4 µM)	32 (≈ 32.7 µM)	32 (≈ 32.7 µM)	1 (≈ 1.02 µM)	1 (≈ 1.02 µM)	0.03 (≈ 0.0307 µM)
CC[C@H]1OC(=O)[C@H](C)[C@@H](O[C@H]2C[C@@](C)(OC)[C@@H](OC(=O)NCc3cn(Cc4cccc(C)c4)nn3)[C@H](C)O2)[C@H](C)[C@@H](O[C@@H]2O[C@H](C)C[C@H](N(C)C)[C@H]2O)[C@](C)(O)C[C@@H](C)CN(C)[C@H](C)[C@H]2OC(=O)O[C@@]21C	1 (≈ 0.997 µM)	4 (≈ 3.99 µM)	64 (≈ 63.8 µM)	2 (≈ 1.99 µM)	32 (≈ 31.9 µM)	64 (≈ 63.8 µM)	128 (≈ 128 µM)	2 (≈ 1.99 µM)	2 (≈ 1.99 µM)	0.25 (≈ 0.249 µM)
CC[C@H]1OC(=O)[C@H](C)[C@@H](O[C@H]2C[C@@](C)(OC)[C@@H](OC(=O)NCc3cn(Cc4ccc(Cl)cc4)nn3)[C@H](C)O2)[C@H](C)[C@@H](O[C@@H]2O[C@H](C)C[C@H](N(C)C)[C@H]2O)[C@](C)(O)C[C@@H](C)CN(C)[C@H](C)[C@H]2OC(=O)O[C@@]21C	1 (≈ 0.977 µM)	8 (≈ 7.82 µM)	64 (≈ 62.5 µM)	1 (≈ 0.977 µM)	32 (≈ 31.3 µM)	64 (≈ 62.5 µM)	64 (≈ 62.5 µM)	4 (≈ 3.91 µM)	4 (≈ 3.91 µM)	0.125 (≈ 0.122 µM)
CC[C@H]1OC(=O)[C@H](C)[C@@H](O[C@H]2C[C@@](C)(OC)[C@@H](OC(=O)NCc3cn(Cc4ccccc4)nn3)[C@H](C)O2)[C@H](C)[C@@H](O[C@@H]2O[C@H](C)C[C@H](N(C)C)[C@H]2O)[C@](C)(O)C[C@@H](C)CN(C)[C@H](C)[C@H]2OC(=O)O[C@@]21C	0.5 (≈ 0.505 µM)	8 (≈ 8.09 µM)	64 (≈ 64.7 µM)	8 (≈ 8.09 µM)	32 (≈ 32.3 µM)	128 (≈ 129 µM)	128 (≈ 129 µM)	4 (≈ 4.04 µM)	4 (≈ 4.04 µM)	0.06 (≈ 0.0607 µM)
CC[C@H]1OC(=O)[C@H](C)[C@@H](O[C@H]2C[C@@](C)(OC)[C@@H](OC(=O)NCc3cn(Cc4ccc(Br)cc4)nn3)[C@H](C)O2)[C@H](C)[C@@H](O[C@@H]2O[C@H](C)C[C@H](N(C)C)[C@H]2O)[C@](C)(O)C[C@@H](C)CN(C)[C@H](C)[C@H]2OC(=O)O[C@@]21C	1 (≈ 0.936 µM)	4 (≈ 3.74 µM)	64 (≈ 59.9 µM)	1 (≈ 0.936 µM)	32 (≈ 30 µM)	32 (≈ 30 µM)	128 (≈ 120 µM)	2 (≈ 1.87 µM)	1 (≈ 0.936 µM)	0.06 (≈ 0.0562 µM)
CC[C@H]1OC(=O)[C@H](C)[C@@H](O[C@H]2C[C@@](C)(OC)[C@@H](OC(=O)NCc3cn(Cc4cccc(Cl)c4)nn3)[C@H](C)O2)[C@H](C)[C@@H](O[C@@H]2O[C@H](C)C[C@H](N(C)C)[C@H]2O)[C@](C)(O)C[C@@H](C)CN(C)[C@H](C)[C@@H](O)[C@]1(C)O	0.25 (≈ 0.251 µM)	0.5 (≈ 0.501 µM)	32 (≈ 32.1 µM)	0.25 (≈ 0.251 µM)	8 (≈ 8.02 µM)	64 (≈ 64.1 µM)	16 (≈ 16 µM)	1 (≈ 1 µM)	1 (≈ 1 µM)	0.06 (≈ 0.0601 µM)
